Results from patent US6974800B1, “Formulations comprising an inhibitor of carboxypeptidase U and A thrombin inhibitor” (AstraZeneca AB, priority 1999, dated 2005).

System: lung fibrin deposition
Assay: Lung fibrin deposition in the anaesthetized rat (endotoxin + batroxobin, 125I-fibrinogen)
Assay type: in vivo, rat (Sprague Dawley)
Protocol: Batroxobin No. 520 CRY (American Diagnostica Inc., Greenwich, Conn., USA) was kept at 8° C. both while lyophilized and when dissolved in saline to a concentration of 10 BU/ml. It was used within 5 days in the experiments. The remaining drug was freezed and kept at […] for a maximum of 30 days.
Endotoxin L-3129 (Sigma, St. Louis, Mo., USA) was dissolved in saline to a concentration of 50 μg/ml. A fresh solution was prepared for each experiment.
^125I-labelled human fibrinogen (Amersham, Little Chalfont, Buck., UK) was stored at 8° C. while lyophilized. After dissolving in saline/aq.dest. (80/20 v/v) to a stock solution of approx. 0.8 MBq/ml (20 μCi/ml) it was divided into aliquots (one for each experiment), quickly freezed and stored at −20° C. It was used in the experiments within 14 days after the production date.
The thrombin inhibitor inogatran was dissolved in 40% (w/w) cyclodextrin (HPβCD) to a concentration of 5 mg/ml and stored at −20° C. It was further diluted with 40% cyclo-dextrin before use in the different experiments. In the studies the drug was administered subcutaneously.
The thrombin inhibitor melagatran was dissolved in saline.
The CPU inhibitors […] and Compound A were dissolved in deoxygenated saline. The saline was deoxygenated by ultrasonication for 20 min and subsequently by passing nitrogen for another 20 min. The solutions were always fresh-made for each experiment. The CPU inhibitor was administered to the rats as an i.v. infusion for 5 min.
Male rats of the Sprague Dawley strain (Charles River, Sweden) with a body weight of 325–425 g were used in these experiments. The animals were allowed to accommodate at AstraZeneca R&D, Mölndal, Sweden for 1 week before use.
Anaesthesia was induced and maintained by Inactin 100 mg/kg i.p.
Two catheters were inserted in the left jugular vein, one for administration of ^125I-fibrinogen and batroxobin and the other for administration of endotoxin and CPU inhibitor or their corresponding vehicles. A third catheter was inserted in the carotid artery for blood sampling and measurement of the mean arterial blood pressure and heart rate. To avoid blood clots in the arterial catheter a slow saline infusion (approx. 1.0 ml/kg*h) was maintained throughout the experiment. The rats were tracheotomized in order to facilitate spontaneous breathing. The body temperature was monitored and maintained at 38° C. by external heating.
The animals were given an i.v. injection of endotoxin (50 μg/kg) at the start of the experiment. Two hours later the thrombin inhibitor or its vehicle was injected subcutaneously and another 15 min later ^125I-fibrinogen (0.04 MBq) was given as an i.v. injection. An infusion lasting for five minutes of the CPU-inhibitor or its vehicle was started after 5 min. After 5 min, batroxobin (10 BU/kg) was given as an i.v. bolus injection for one minute.
Blood samples for determination of ^125I-content were taken in all experiments just before and 5, 20 and 30 min after the batroxobin administration. At the end of the experiment the lungs were excised, the tissue was gently washed in saline and thereafter blotted and weighed. The ^125I-content in the tissue and blood samples was determined, using a Wallac 1282 Compugamma counter. The ^125I-concentration in plasma and in the lungs was expressed as a percentage of the radioactivity in the reference arterial blood sample taken just prior to the batroxobin injection.
For each of the four different dose combinations, only CPU inhibitor, only thrombin inhibitor, thrombin inhibitor together with CPU inhibitor at 0.2 and 0.28 μmol/kg respectively, separate E-max models were fitted. The models were fitted on a logarithmic scale giving estimates of the median effective dose, i.e., the dose where half of the population has 50% effect.

For `N=C(N)NCCSCC(CS)C(=O)O` (racemic) [MERGETPA, DL-2-mercaptomethyl-3-guanidinoethylthiopropanoic acid], the “Remaining fibrin after treatment” value (Table I, CPU inhibitor alone, 8.4 μmol/kg i.v. infusion, 100% = no effect) was 90 ± 18.1%, the “Remaining fibrin after treatment” value (Table I, CPU inhibitor alone, 21.1 μmol/kg i.v. infusion) was 37 ± 19.3% and the “Remaining fibrin after treatment” value (Table I, CPU inhibitor alone, 33.7 μmol/kg i.v. infusion) was 23 ± 17.3%.

With `Nc1ccc(CC(CS)C(=O)O)cn1` (stereo not drawn) [compound A, 3-(6-amino-pyridin-3-yl)-2-mercaptomethyl-propanoic acid] the “Remaining fibrin after treatment” value (Table II, CPU inhibitor alone, 0.20 μmol/kg i.v. infusion) was 100 ± 25.8%, the “Remaining fibrin after treatment” value (Table II, CPU inhibitor alone, 0.28 μmol/kg) was 88 ± 23.2% and the “Remaining fibrin after treatment” value (Table II, CPU inhibitor alone, 0.4 μmol/kg) was 87 ± 50.6 n = 6%. For the same compound, the “Remaining fibrin after treatment” value (Table II, CPU inhibitor alone, 2.0 μmol/kg) was 49 ± 30.0 n = 7%, the “Remaining fibrin after treatment” value (Table II, CPU inhibitor alone, 4.0 μmol/kg) was 15 ± 9.3 n = 4% and the “Remaining fibrin after treatment” value (Table II, CPU inhibitor alone, 20.0 μmol/kg) was 7 ± 1.4 n = 2%. For the same compound, the “Remaining fibrin after treatment” value (Table III, CPU inhibitor alone, 0.20 μmol/kg) was 97 ± 24.1% and the “Remaining fibrin after treatment” value (Table III, CPU inhibitor alone, 0.28 μmol/kg) was 81 ± 24.5%.

For `N=C(N)NCCCNC(=O)[C@@H]1CCCCN1C(=O)[C@@H](CC1CCCCC1)NCC(=O)O` [inogatran, HOOC—CH2—(R)Cha-Pic-Nag-H], the “Remaining fibrin after treatment” value (Table I, thrombin inhibitor alone, 2.3 μmol/kg s.c.) was 94 ± 20.2 n = 6%, the “Remaining fibrin after treatment” value (Table I, thrombin inhibitor alone, 3.4 μmol/kg s.c.) was 72 ± 23.6 n = 6% and the “Remaining fibrin after treatment” value (Table I, thrombin inhibitor alone, 5.7 μmol/kg s.c.) was 41 ± 20.3 n = 6%. For the same compound, the “Remaining fibrin after treatment” value (Table I, thrombin inhibitor alone, 17.2 μmol/kg s.c.) was 39 ± 15.9 n = 6%.

`N=C(N)c1ccc(CNC(=O)[C@@H]2CCN2C(=O)[C@H](NCC(=O)O)C2CCCCC2)cc1` [melagatran, HOOC—CH2—(R)Cgl-Aze-Pab-H] was tested, and the “Remaining fibrin after treatment” value (Table II, thrombin inhibitor alone, 0.23 μmol/kg s.c.) was 97 ± 12.4 n = 6%, the “Remaining fibrin after treatment” value (Table II, thrombin inhibitor alone, 0.35 μmol/kg) was 77 ± 22.4 n = 4% and the “Remaining fibrin after treatment” value (Table II, thrombin inhibitor alone, 0.58 μmol/kg) was 62 ± 17.0 n = 2%. For the same compound, the “Remaining fibrin after treatment” value (Table II, thrombin inhibitor alone, 1.75 μmol/kg) was 31 ± 13.3 n = 4%, the “Remaining fibrin after treatment” value (Table II, thrombin inhibitor alone, 3.5 μmol/kg) was 55 ± 21.7 n = 4% and the “Remaining fibrin after treatment” value (Table III, thrombin inhibitor alone, 0.18 μmol/kg) was 110 ± 15.2 n = 3%. For the same compound, the “Remaining fibrin after treatment” value (Table III, thrombin inhibitor alone, 0.23 μmol/kg) was 98 ± 11.5 n = 7%, the “Remaining fibrin after treatment” value (Table III, thrombin inhibitor alone, 0.30 μmol/kg) was 87 ± 27.6 n = 3% and the “Remaining fibrin after treatment” value (Table III, thrombin inhibitor alone, 0.35 μmol/kg) was 77 ± 22.4 n = 4%.
